Data taken from patent US20220380476A1, “Use of an anti-CCR7 antibody in combination therapies with a BTK inhibitor and/or BCL2- inhibitor for treating hematological malignancies” (Catapult Therapeutics B.V., priority 2019, published 2022).
Entries after “also recorded” stand apart in the source; their conditions may differ.

What was measured:
Bcl-2 = Bcl-2 (Homo sapiens, UniProt P10415); conditions: cited from earlier work
[1] = system: lymphoma and other blood cancers; conditions: cited from earlier work
[2] = system: primary cells from patients with B-cell malignancies; conditions: in vitro; cited from earlier work
MCL-1 = MCL-1 (Homo sapiens, UniProt Q07820); conditions: cited from earlier work
Sequence of MCL-1 (Q07820 whole entry, species assumed): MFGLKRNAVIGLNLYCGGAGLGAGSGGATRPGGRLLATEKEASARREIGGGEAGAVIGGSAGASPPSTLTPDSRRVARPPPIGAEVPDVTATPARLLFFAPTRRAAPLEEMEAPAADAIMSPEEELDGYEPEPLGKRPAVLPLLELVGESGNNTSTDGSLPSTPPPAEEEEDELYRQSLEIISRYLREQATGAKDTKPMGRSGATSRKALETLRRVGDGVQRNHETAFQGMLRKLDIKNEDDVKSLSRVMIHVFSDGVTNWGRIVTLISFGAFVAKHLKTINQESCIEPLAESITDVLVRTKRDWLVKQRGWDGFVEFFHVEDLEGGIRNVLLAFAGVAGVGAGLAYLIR

CCR7 = test: Flow cytometry of surface CCR7 expression in CLL cells from treated patients; assay type: in vivo, human; conditions: for change in surface CCR7 expression compared with naïve patients: CLL patients on treatment
Method: Systems). […] Data acquisition was performed on a BD FACSCanto™ 11 Flow Cytometer (BD Biosciences).

BCL-XL and BCL-W = conditions: cited from earlier work
[3] = system: patients with chronic lymphocytic leukemia (CLL); conditions: cited from earlier work
CD20 (human) = CD20 (human) (UniProt P11836)
Sequence of CD20 (human) (P11836 whole entry): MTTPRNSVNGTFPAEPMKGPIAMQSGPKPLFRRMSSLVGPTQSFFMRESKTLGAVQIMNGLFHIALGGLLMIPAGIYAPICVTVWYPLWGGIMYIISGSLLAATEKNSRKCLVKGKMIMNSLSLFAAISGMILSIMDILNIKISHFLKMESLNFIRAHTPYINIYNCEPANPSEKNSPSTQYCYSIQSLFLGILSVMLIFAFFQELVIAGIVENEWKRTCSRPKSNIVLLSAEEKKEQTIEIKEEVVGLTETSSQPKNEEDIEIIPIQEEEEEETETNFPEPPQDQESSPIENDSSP

Bcl-2 mRNA = conditions: cited from earlier work
[4] = target: T1, human CC motif receptor 7 (CCR7) (human, UniProt P32248 25-378); test: cell-based or functional assay
T1 sequence (looked up): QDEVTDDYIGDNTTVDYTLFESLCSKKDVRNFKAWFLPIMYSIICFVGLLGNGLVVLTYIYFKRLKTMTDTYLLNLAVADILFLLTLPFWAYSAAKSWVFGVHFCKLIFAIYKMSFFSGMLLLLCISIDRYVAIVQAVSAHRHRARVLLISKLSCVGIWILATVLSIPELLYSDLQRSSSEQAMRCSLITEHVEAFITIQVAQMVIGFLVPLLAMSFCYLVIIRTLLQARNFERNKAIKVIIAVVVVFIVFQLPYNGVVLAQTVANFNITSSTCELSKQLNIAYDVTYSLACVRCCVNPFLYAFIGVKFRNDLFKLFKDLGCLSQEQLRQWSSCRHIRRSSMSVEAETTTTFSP

[5] = target: T1, human CC motif receptor 7 (CCR7); test: cell-based or functional assay; remark: listed apart in the source
[6] = target: T1, human CC motif receptor 7 (CCR7); test: cell-based or functional assay; remark: listed apart in the source
[7] = target: T1, human CC motif receptor 7 (CCR7); test: cell-based or functional assay; remark: listed apart in the source
[8] = target: T1, human CC motif receptor 7 (CCR7); test: cell-based or functional assay; remark: listed apart in the source
[9] = target: T1, human CC motif receptor 7 (CCR7); test: cell-based or functional assay; remark: listed apart in the source

Sequence of Bcl-2 (P10415 whole entry): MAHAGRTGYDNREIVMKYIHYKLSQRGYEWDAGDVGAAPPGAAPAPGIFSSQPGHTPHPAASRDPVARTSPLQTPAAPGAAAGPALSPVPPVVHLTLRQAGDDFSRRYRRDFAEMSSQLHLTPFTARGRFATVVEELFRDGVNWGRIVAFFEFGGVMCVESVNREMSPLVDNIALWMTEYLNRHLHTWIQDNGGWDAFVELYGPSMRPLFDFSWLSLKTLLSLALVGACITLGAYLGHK

Molecule: CN(C)CC[C@H](CSc1ccccc1)Nc1ccc(S(=O)(=O)NC(=O)c2ccc(N3CCN(Cc4ccccc4-c4ccc(Cl)cc4)CC3)cc2)cc1[N+](=O)[O-] [ABT-737, 4-[4-[(4′-chloro[1,T-biphenyl]-2-yl)methyl]-1-piperazinyl]A/-[[4-[[(1R)-3-(dimethylamino)-1-[(phenylthio)methyl]propyl]amino]-3-nitrophenyl]sulfonyl]benzamide]
- affinity for Bcl-2, Bcl-xL and Bcl-w compared with previous Bcl-2 inhibitors (Bcl-2): higher affinity
- survival ([1]; animal models): improves survival
- tumor regression ([1]; animal models): causes tumor regression
- efficacy in patient xenografts ([1]; preclinical studies utilizing patient xenografts): shows efficacy
- sensitivity of primary cells [2]: sensitive
- activity against MCL-1 (MCL-1): not A1 or Mcl-1

Molecule: CC#CC(=O)N1CCC[C@H]1c1nc(-c2ccc(C(=O)Nc3ccccn3)cc2)c2c(N)nccn12 [acalabrutinib]
- change in surface CCR7 expression compared with naïve patients (CCR7): unchanged; also recorded: no changes

Molecule: CC1(C)CCC(c2ccc(Cl)cc2)=C(CN2CCN(c3ccc(C(=O)NS(=O)(=O)c4ccc(N[C@H](CCN5CCOCC5)CSc5ccccc5)c(S(=O)(=O)C(F)(F)F)c4)cc3)CC2)C1 [navitoclax, 4-(4-{[2-(4-Chlorophenyl)-5,5-dimethyl-1-cyclohexen-1-yl]methyl}-1-piperazinyl)-N-[(4-{[(2R)-4-(4-morpholinyl)-1-(phenylsulfanyl)-2-butanyl]amino}-3-[(trifluoromethyl)sulfonyl]phenyl)sulfonyl]-benzamide]
- affinity for Bcl-2, Bcl-xL and Bcl-w compared with previous Bcl-2 inhibitors (Bcl-2): higher affinity
- activity against MCL-1 (MCL-1): not A1 or Mcl-1

Molecule: CC1(C)CCC(CN2CCN(c3ccc(C(=O)NS(=O)(=O)c4ccc(NCC5CCOCC5)c([N+](=O)[O-])c4)c(Oc4cnc5[nH]ccc5c4)c3)CC2)=C(c2ccc(Cl)cc2)C1 [venetoclax]
- binding affinity to BCL-XL and BCL-W (BCL-XL and BCL-W): significantly lower affinity
- inhibition of Bcl-xL or Bcl-w (BCL-XL and BCL-W): not Bcl-xL or Bcl-w
- percentage of CCR7-expressing CLL cells (CCR7; CLL cells from patients on treatment): approximately 100%
- change in surface CCR7 expression compared with naïve patients (CCR7): maintained in essentially all CLL cells
- clinical response [3]: Good responses
- thrombocytopenia [3]: not observed
- activity against MCL-1 (MCL-1): no activity

Molecule: C=CC(=O)N1CCC([C@@H]2CCNc3c(C(N)=O)c(-c4ccc(Oc5ccccc5)cc4)nn32)CC1 [zanabrutinib]
- change in surface CCR7 expression compared with naïve patients (CCR7): unchanged; also recorded: no changes

Molecule: RTX (antibody)
- EC50 (read off the curve); ADCC on CLL cells of a patient receiving venetoclax (CD20 (human)): 2 µg/mL

Molecule: oblimersen
- cell proliferation (Bcl-2 mRNA): inhibited

B1: CAP-100 (antibody, human IgG1, V domains shown)
VH: EVQLLESGGGFVKPGGSLKLSCVVSGLTFRDFAMSWVRQTPEKRLVWVATISSGGFYTYYPDSVKGRFTISRDNVRNILYLQMSSLRSEDTAVYYCVRRAYRYDGTGDYSALDYWGTGTTVTVSS
VL: DIQMTQSPSSLSASVGDRVTITCRASQDIGPSLNWYQQKPGKAPKRLIYATSNLDSGVPSRFSGSGSGTDFTLTISSLQPEDFATYYCLQFASSPLTFGQGTKVEIK
- EC50 (read off the curve); ADCC on CLL cells of a patient receiving ibrutinib [4]: ~1 µg/mL
- IC50 (read off the curve); CCL19-induced migration of CLL cells of an ibrutinib patient [5]: ~0.2 µg/mL
- EC50 (read off the curve); ADCC on CLL cells of a patient receiving zanabrutinib [6]: ~0.8 µg/mL
- EC50 (read off the curve); ADCC on CLL cells of a patient receiving venetoclax [7]: ~0.2 µg/mL
- EC50 (read off the curve); ADCC on CLL cells of a patient with disease relapsed/refractory to ibrutinib [8]: ~1 µg/mL
- IC50 (read off the curve); CCL21-induced migration of CLL cells of a patient receiving venetoclax [9]: ~0.1 µg/mL
